Measured values reported in publication PMC11525138 (The Journal of Biological Chemistry, 2024).
Read-outs that look alike come from different tables or passages of the source.

Columns and labels:
NanHGH33 [1] = molecular target: T1, NanHGH33 (Clostridium perfringens, UniProt P10481); type: biochemical; conditions: pH 4.5
NanIGH33 [2] = molecular target: T2, NanIGH33 (Clostridium perfringens, UniProt Q59310); type: biochemical; conditions: pH 4.5
NanJGH33 [3] = molecular target: T3, NanJGH33 (Clostridium perfringens, UniProt A0A0H2YT71); type: biochemical; conditions: pH 4.5
NanJGH33 [4] = molecular target: T3, NanJGH33; type: biochemical
NanJGH33 [5] = molecular target: T3, NanJGH33; assay: biochemical; type: biochemical
NanHGH33 [6] = molecular target: T1, NanHGH33; assay: biochemical; type: biochemical
NanIGH33 [7] = molecular target: T2, NanIGH33; type: biochemical
C. perfringens CP1 = type: cell-based, Clostridium perfringens; conditions: for Doubling Time: without DANA 0.762; for k (rate constant) of exponential growth: without DANA 0.909 ± 0.098
NanHGH33 [8] = molecular target: T1, NanHGH33; type: biochemical
NanIGH33 [9] = molecular target: T2, NanIGH33; assay: biochemical; type: biochemical

T2 sequence (Q59310 243-694 limits assumed): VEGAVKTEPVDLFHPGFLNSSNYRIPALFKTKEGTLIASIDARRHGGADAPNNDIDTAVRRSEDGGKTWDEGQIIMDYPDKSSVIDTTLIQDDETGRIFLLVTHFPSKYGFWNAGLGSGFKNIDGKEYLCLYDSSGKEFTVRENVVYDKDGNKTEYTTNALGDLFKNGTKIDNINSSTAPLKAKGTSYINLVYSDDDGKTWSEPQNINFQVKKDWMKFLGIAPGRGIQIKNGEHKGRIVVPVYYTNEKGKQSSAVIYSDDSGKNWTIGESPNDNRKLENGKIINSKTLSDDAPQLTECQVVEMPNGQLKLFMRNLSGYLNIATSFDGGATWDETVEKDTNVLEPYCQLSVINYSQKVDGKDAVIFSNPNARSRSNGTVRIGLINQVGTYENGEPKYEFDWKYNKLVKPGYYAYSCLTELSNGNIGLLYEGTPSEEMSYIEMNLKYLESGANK
T3 sequence (A0A0H2YT71 373-820 limits assumed): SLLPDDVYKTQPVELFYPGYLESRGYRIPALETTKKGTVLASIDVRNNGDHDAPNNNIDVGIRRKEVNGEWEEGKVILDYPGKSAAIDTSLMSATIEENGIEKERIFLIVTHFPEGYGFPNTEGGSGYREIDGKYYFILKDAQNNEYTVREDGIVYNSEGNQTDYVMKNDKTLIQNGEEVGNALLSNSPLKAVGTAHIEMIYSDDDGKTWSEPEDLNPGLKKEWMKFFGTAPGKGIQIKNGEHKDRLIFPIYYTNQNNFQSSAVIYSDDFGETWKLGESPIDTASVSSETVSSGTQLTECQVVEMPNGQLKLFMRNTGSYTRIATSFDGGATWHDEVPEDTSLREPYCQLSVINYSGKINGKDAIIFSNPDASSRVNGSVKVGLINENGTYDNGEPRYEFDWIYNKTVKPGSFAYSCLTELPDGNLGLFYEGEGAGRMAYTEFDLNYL
T1 sequence (P10481 whole entry, looked up): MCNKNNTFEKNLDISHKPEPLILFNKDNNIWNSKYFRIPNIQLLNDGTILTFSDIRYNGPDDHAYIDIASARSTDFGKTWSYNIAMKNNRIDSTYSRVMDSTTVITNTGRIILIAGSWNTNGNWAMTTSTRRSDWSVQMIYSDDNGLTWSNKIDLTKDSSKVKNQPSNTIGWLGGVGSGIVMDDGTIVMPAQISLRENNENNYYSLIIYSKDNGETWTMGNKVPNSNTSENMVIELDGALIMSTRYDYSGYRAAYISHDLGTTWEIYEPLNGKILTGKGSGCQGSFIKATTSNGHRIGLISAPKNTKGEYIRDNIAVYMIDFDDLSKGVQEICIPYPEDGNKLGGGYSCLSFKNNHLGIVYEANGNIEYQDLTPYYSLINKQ

`CC(=O)N[C@H]1[C@H]([C@H](O)[C@H](O)CO)O[C@@](O[C@H]2[C@@H](O)[C@@H](CO)O[C@@H](O[C@H]3[C@H](O)[C@@H](O)C(O)O[C@@H]3CO)[C@@H]2O)(C(=O)O)C[C@@H]1O` (stereo partly drawn) [3′-SL, 3′-sialyllactose] was tested, and the “hydrolysis of substrate in competition assay (in words)” value (shortened to “hydrolysis of substrate”) (NanHGH33 [1]) was “hydrolyzed”, the “hydrolysis of substrate” value (NanIGH33 [2]) was “roughly equal rates” and the “hydrolysis of substrate” value (NanJGH33 [3]) was “processed both substrates very rapidly”.
For `CC(=O)N[C@H]1[C@H]([C@H](O)[C@H](O)CO)O[C@@](OC[C@H]2O[C@@H](O[C@H]3[C@H](O)[C@@H](O)[C@H](O)O[C@@H]3CO)[C@H](O)[C@@H](O)[C@H]2O)(C(=O)O)C[C@@H]1O` [6′-SL, 6′-sialyllactose], the “hydrolysis of substrate” value (NanHGH33 [1]) was “did not show any significant capacity to hydrolyze”, the “hydrolysis of substrate” value (NanIGH33 [2]) was “roughly equal rates” and the “hydrolysis of substrate” value (NanJGH33 [3]) was “processed both substrates very rapidly”.
With `CC(=O)N[C@H]1[C@H]([C@H](O)[C@H](O)CO)OC(C(=O)O)=C[C@@H]1O` [DANA, N-acetyl-2,3-dehydro-2-deoxyneuraminic acid] the “lactose released from 3′- and 6′-SL in the presence of inhibitor” value (from here on “lactose released … of inhibitor”) (NanJGH33 [4]) was “reduced the amount of lactose released”, the Ki (NanJGH33 [5]; pH 6.8, read-out: Ki) was 3.2 ± 0.3 µM and the Ki (NanHGH33 [6]; pH 7, read-out: Ki) was 33.9 ± 4.4 µM. For the same compound, the “lactose released … of inhibitor” value (NanIGH33 [7]) was “reduced the amount of lactose released”, the “effect on growth of C. perfringens in the presence of 3′SL” value (C. perfringens CP1; 0.5% 3′SL as substrate, 1 mM DANA required for a clear effect) was “reduce the growth” and the “Doubling Time” value (C. perfringens CP1; 3'SL + 0.01 mM DANA) was 0.571 h. For the same compound, the “k (rate constant) of exponential growth” value (C. perfringens CP1; 3'SL + 0.01 mM DANA) was 1.214 ± 0.085, the “Doubling Time” value (C. perfringens CP1; 3'SL + 0.1 mM DANA) was 0.576 h and the “k (rate constant) of exponential growth” value (C. perfringens CP1; 3'SL + 0.1 mM DANA) was 1.202 ± 0.066. For the same compound, the “Doubling Time” value (C. perfringens CP1; 3'SL + 1 mM DANA) was 1.725 h, the “k (rate constant) of exponential growth” value (C. perfringens CP1; 3'SL + 1 mM DANA) was 0.402 ± 0.019 and the “effect on C. perfringens consumption of 3′-SL” value (C. perfringens CP1; 24 h culture supernatants, HPAEC-PAD quantification) was “protect against C. perfringens consumption of 3′-SL”. For the same compound, the “reduction of growth of C. perfringens with glucose as the sole carbohydrate source” value (C. perfringens CP1; glucose as sole carbohydrate source, data not shown) was “not”, the “lactose released … of inhibitor” value (NanHGH33 [8]) was “reduced the amount of lactose released” and the Ki (NanIGH33 [9]; pH 6.5, read-out: Ki) was 3.1 ± 0.5 µM.
For `CCOC(=O)C1=C[C@@H](OC(CC)CC)[C@H](NC(C)=O)[C@@H](N)C1` [Oseltamivir, (3R,4R,5S)-4-acetamido-5-amino-3-(1-ethylpropoxy)-1-cyclohexene-1-carboxylic acid ethyl ester], the Ki (NanJGH33 [5]) was greater than 100 µM, the “inhibition of NanJGH33 (in words)” value (NanJGH33 [5]) was “did not display any detectable inhibition” and the Ki (NanHGH33 [6]) was greater than 100 µM. The “inhibition of NanHGH33 (in words)” value (NanHGH33 [6]) was “did not display any detectable inhibition”, the Ki (NanIGH33 [9]) was greater than 100 µM and the “inhibition of NanIGH33 (in words)” value (NanIGH33 [9]) was “did not display any detectable inhibition”.
`CC(=O)N[C@H]1NC[C@H](C(=O)O)[C@H](O)[C@@H]1O` [Siastatin B, (3S, 4S, 5R, 6R)-6-(acetylamino)-4,5-dihydroxy-3-piperidinecarboxylic acid] was tested, and the Ki (NanJGH33 [5]) was 13.3 ± 1.6 µM, the Ki (NanHGH33 [6]) was 125 ± 16.2 µM and the Ki (NanIGH33 [9]) was 10.7 ± 2 µM.
For `CC(=O)N[C@H]1[C@H]([C@H](O)[C@H](O)CO)O[C@@](Oc2c[nH]c3ccc(Br)c(Cl)c23)(C(=O)O)C[C@@H]1O` [X-Neu5Ac, 5-bromo-4-chloro-3-indolyl α-D-N-acetylneuraminic acid], the “kcat/Km of NanJGH33 relative to NanHGH33” value (NanJGH33 [5]) was roughly 3.6 fold, the “kcat/Km of NanJGH33 relative to NanIGH33” value (NanJGH33 [5]) was “approximately 2 fold” and the Km (NanJGH33 [5]; pH 6.8) was 87 ± 10.7 µM. For the same compound, the kcat (NanJGH33 [5]; pH 6.8) was 15.3 ± 0.6 s⁻¹, the Km (NanHGH33 [6]; pH 7) was 280 ± 62.7 µM and the kcat (NanHGH33 [6]; pH 7) was 13.3 ± 1.2 s⁻¹. It also gave a Km (NanIGH33 [9]; pH 6.5) of 123 ± 25.4 µM, a Vmax (NanIGH33 [9]; pH 6.5) of 0.09 ± 0.01 µM/s and a kcat (NanIGH33 [9]; pH 6.5) of 9.2 ± 0.6 s⁻¹.
In the case of `CC(=O)N[C@H]1[C@H]([C@H](O)[C@H](O)CO)OC(C(=O)O)=C[C@@H]1N=C(N)N` [Zanamivir, 4-guanidino-2,4-dideoxy-2,3-dehydro-N-acetylneuraminic acid], the Ki (NanJGH33 [5]) is reported as greater than 100 µM, the “inhibition of NanJGH33 (in words)” value (NanJGH33 [5]) is reported as “did not display any detectable inhibition” and the Ki (NanHGH33 [6]) is reported as greater than 100 µM. The “inhibition of NanHGH33 (in words)” value (NanHGH33 [6]) was “did not display any detectable inhibition”, the Ki (NanIGH33 [9]) was greater than 100 µM and the “inhibition of NanIGH33 (in words)” value (NanIGH33 [9]) was “did not display any detectable inhibition”.
